In US20020103107A1, “Screening assay for anti-thrombotic/anti-platelet activity” (priority 2000, published 2002):
One block for each molecule: values may come before it.

Legend:
human platelets = assay: Platelet aggregation of washed platelets (aggregometer), α-thrombin and other agonists
Protocol: The requirement of GP Ib for polymerizing fibrin was defined in a series of studies where results were compared with thrombin plus fibrinogen added to platelets versus platelets added to polymerizing fibrin. Washed platelets (50 μl) as a 10× concentrate were added to 0.05 to 0.1 U/ml α-thrombin plus fibrinogen pre-incubated for 2 minutes (polymerizing fibrin) in 430 μl buffer.
Blood was drawn by venopuncture into plastic tubes that contained 1/10 volume 3.8% citrate and platelet-rich plasma (PRP) was prepared in accordance with known techniques (Soslau, G. and J. Giles. 1982. Thrombos. Res. 26:443-455). Blood samples were obtained from healthy donors who were medication free. Washed platelets were prepared from the PRP by known methods (Basheer, A. R. et al. 1995. Biochim. Biophys. Acta 1250:97-109). Briefly, PRP was diluted with 3 volumes of 100 nM citrate buffer (pH 6.0) plus 1 to 2 volumes of hepes Tyrode's buffer (pH 7.4), final volume of 50 ml, and resuspended in hepes Tyrode's buffer with 1 mg/ml dextrose plus 1 mg/ml bovine serum albumin at 2×10^6/μl to 3×10^6/μl (a 10× normal concentration).
Platelet aggregations were performed on a dual-channel Chronolog lumi aggregometer (Chronolog Corp., Havertown, Pa.) by known methods (Soslau, G. et al. 1988. Biochem. Biophys. Res. Commun. 15:909-916). Aggregations were conducted with 480 μl washed platelets or a 50 μl sample of the concentrated platelets added to 430 μl hepes Tyrode's buffer with a final platelet count of 2×0^5/μl to 3×10^5/μl. Agonists and antagonists were added at various concentrations.

GP Ib = assay: Platelet aggregation via the GP Ib pathway (α-thrombin with PAR-1 blocked / polymerizing fibrin); assay type: cell-based, human
Protocol: This antibody is known to selectively bind to the thrombin binding site.
The presence of three distinct thrombin receptors on human platelets was shown in experiments with combinations of inhibitors and PAR-4 desensitization. Platelets treated with SCH203099 (7.5 μM) plus ATAP-2 (50 μg/ml) have the PAR-1 receptor blocked at two levels, the tethered ligand and the PAR-1 receptor site for the tethered ligand. […] The delay in aggregation can be explained by the time required for the generation of polymerizing fibrin which would participate in platelet aggregation. This alternative α-thrombin pathway would be obscured normally by the rapid acting PAR-1 pathway.
(§1) AEBSF blocks the catalytic site, but not the GP Ib-binding site of thrombin. Platelets were treated under identical conditions with AEBSF plus the thrombin substrate CBS 34.47 (7.5 μM) in order to determine if AEBSF remains active in the presence of the polymerizing fibrin-thrombin complex. After 5 minutes incubation, the platelets were pelleted in a microcentrifuge for 4 minutes at 14,000 rpm and the generation of product was monitored at 405 nm. AEBSF inhibited thrombin activity in excess of 90%.

thrombin = assay: Thrombin activity with thrombin substrate CBS 34.47, product monitored at 405 nm; assay type: biochemical; details: in presence of polymerizing fibrin-thrombin complex and platelets; CBS 34.47 7.5 μM; 5 minutes incubation
Protocol: as §1

platelets [1] = assay: Calcium mobilization in Fura-2 loaded platelets; assay type: cell-based, human; details: 10 μM SCH 203099 for one hour
Protocol: (§2) Further studies were conducted to distinguish between polymerizing fibrin-dependent platelet aggregation versus platelet trapping. True platelet aggregation involves signal transduction, second messenger formation with subsequent mobilization of internal calcium stores and the platelet release reaction. Platelet trapping, in contrast, by polymerizing fibrin would not involve any of these secondary responses. […] The platelet release reaction was monitored by release of dense granule ATP. Here the release reaction was followed simultaneously with aggregation. […] However, conditions that induced platelet adhesion/polymerizing fibrin-trapping were not associated with any ATP release.
The mobilization of internal stores of calcium, [Ca^+2]i, was monitored with a Hitachi F-2000 fluorescence spectrophotometer in the presence of extracellular EGTA to chelate the extracellular Ca^+2 (Soslau, G. et al. 1995. Biochim. Biophys. Acta 1268:73-80). Platelets, as PRP, were pre-loaded with 1 μM Fura-2 AM for 45 to 60 minutes and then washed and resuspended in hepes Tyrode's buffer at a concentration of […]. Samples were incubated at room temperature with or without 10 μM SCH 203099 for one hour prior to analysis. […] Agonists were added through an injection port at various concentrations. Excitation wavelengths were 340 nm and 380 nm and emission was measured at 505 nm. […]

PAR-1 = PAR-1 (Homo sapiens, UniProt P25116); assay: Platelet aggregation via the PAR-1 pathway (TRAP-1 / rapid onset α-thrombin response); assay type: cell-based
PAR-1, sequence (P25116 22-425): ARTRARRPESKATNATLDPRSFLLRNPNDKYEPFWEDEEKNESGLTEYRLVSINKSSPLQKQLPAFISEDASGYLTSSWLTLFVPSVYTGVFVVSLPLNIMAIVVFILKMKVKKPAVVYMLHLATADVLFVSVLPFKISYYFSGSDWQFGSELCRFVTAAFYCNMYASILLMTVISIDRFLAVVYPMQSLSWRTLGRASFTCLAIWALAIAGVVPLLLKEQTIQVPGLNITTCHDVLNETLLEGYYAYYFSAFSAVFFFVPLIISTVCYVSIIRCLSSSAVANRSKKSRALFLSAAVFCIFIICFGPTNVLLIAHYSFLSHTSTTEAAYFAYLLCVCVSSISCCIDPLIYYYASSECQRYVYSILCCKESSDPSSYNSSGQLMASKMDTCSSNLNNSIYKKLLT
Text: Therefore, GP Ib is the likely candidate.

PAR-4 = molecular target: T1, PAR-4 (Homo sapiens, UniProt Q96RI0); assay: Platelet aggregation via the PAR-4 pathway (TRAP-4 / γ-thrombin); assay type: cell-based; details: SCH203099 5 to 10 μM
T1 sequence (Q96RI0 18-385): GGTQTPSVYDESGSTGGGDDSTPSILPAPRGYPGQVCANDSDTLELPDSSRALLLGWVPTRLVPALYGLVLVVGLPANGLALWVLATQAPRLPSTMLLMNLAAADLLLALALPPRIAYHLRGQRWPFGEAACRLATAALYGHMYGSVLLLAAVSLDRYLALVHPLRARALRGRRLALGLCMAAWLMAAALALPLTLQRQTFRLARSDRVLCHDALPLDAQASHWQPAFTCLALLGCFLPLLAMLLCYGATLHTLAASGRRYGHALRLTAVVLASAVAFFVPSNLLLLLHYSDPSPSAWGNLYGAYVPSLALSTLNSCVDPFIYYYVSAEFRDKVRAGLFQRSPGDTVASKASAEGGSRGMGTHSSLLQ

platelets [2] = assay: Synergistic platelet aggregation with suboptimal doses of agonists; assay type: cell-based, human; details: PAR1 inactivated
Protocol: In all cases, the sum of the aggregation induced by the individual agonists at suboptimal concentrations varied between 0 and 15% (agonist concentrations varied between 0.01 and 0.005 U/ml for α-thrombin; 0.1 to 2 nM for γ-thrombin; 0.38 to 0.76 μM for TRAP-1; 175 to 350 μM for TRAP-4). The low dose of α-thrombin employed was below the level required to function at PAR-1 or PAR-4 but adequate to activate GP Ib. TRAP-4 and γ-thrombin appeared to function only at PAR-4.

platelets [3] = assay: ATP release (platelet release reaction); assay type: cell-based, human; details: versus corresponding control samples
Protocol: as §2
The platelet release reaction was monitored simultaneously in some experiments with aggregation per known techniques (Soslau, G. and J. Parker. 1992. Thromb. Res. 66:15-21). The release of dense granule ATP from aggregating platelets was detected as light emission in the Chronolog lumi-aggregometer produced by the reaction of ATP with luciferin catalyzed by luficerase (chrono-lume).

platelets [4] = assay: Platelet aggregation induced by U46619 and ADP; assay type: cell-based, human
α-thrombin = assay: Sensitivity of α-thrombin to thrombin inhibitors; assay type: cell-based
γ-thrombin = assay: Sensitivity of γ-thrombin to thrombin inhibitors; assay type: cell-based
β-thrombin = assay: Sensitivity of β-thrombin to thrombin inhibitors; assay type: cell-based

Molecule: GPRP
effect on α-thrombin-induced platelet aggregation (human platelets; thrombin plus fibrinogen): no significant effect

Molecule: NCCc1ccc(S(=O)(=O)F)cc1 [AEBSF]
effect on aggregation, added after formation of the thrombin-fibrin complex but prior to the addition of platelets (GP Ib): did not inhibit | inhibition of thrombin activity (thrombin): > 90% | effect on aggregation, added to thrombin prior to the addition of fibrinogen and platelets (human platelets): completely inhibited

inhibition of TRAP-1-induced aggregation (PAR-1; SCH203099 5 to 10 μM): completely inhibited | inhibition of platelet activation induced by TRAP-4 (PAR-4; 1 mM TRAP-4): did not inhibit | inhibition of platelet activation induced by γ-thrombin (PAR-4; 10 to 30 nM γ-thrombin): did not inhibit
Molecule: CNc1nc(NC2CC2)nc2ccc3c(ccn3Cc3ccc(C(C)C)cc3)c12 [SCH203099]
mobilization of internal calcium in response to TRAP-1 in treated platelets (platelets [1]): only control platelets responded | mobilization of internal calcium in response to α-thrombin in treated platelets (platelets [1]; compared to controls): delayed | response of treated platelets to low dose α-thrombin plus TRAP-4 (platelets [2]): significant response | ATP release of drug-treated platelets aggregating under conditions dependent on polymerizing fibrin (platelets [3]): equal amounts of ATP release | aggregation profile of preincubated/treated platelets stimulated with α-thrombin (human platelets; relative to controls, ultimately reached a similar level of aggregation): delayed aggregation profile

effect on rapid onset α-thrombin-induced PAR-1 pathway aggregation (PAR-1; for the first few minutes, aggregation then ensued via the GP Ib pathway): inhibited | effect on aggregation via the PAR-1 pathway when γ407 replaced normal fibrinogen (PAR-1; until γ407 began to polymerize): initially blocked
Molecule: RGDS
aggregation with polymerizing γ407 via the GP Ib pathway in the presence of RGDS (GP Ib): at a reduced level | effect on aggregation in the presence of polymerizing fibrin (GP Ib; platelets added to α-thrombin plus fibrinogen pre-incubated 2 minutes): not affected significantly | effect on aggregation induced by ADP (platelets [4]): completely blocked | effect on aggregation induced by U46619 (platelets [4]): completely blocked | aggregation in the presence of RGDS without added fibrinogen (human platelets; residual adhering/endogenous fibrinogen only): none occurred

Molecule: hirudin
effect on aggregation, inhibitor added 2 minutes after fibrinogen was pre-incubated with thrombin, platelets added 30 seconds later (GP Ib; polymerizing fibrin present): prevent aggregation completely | inhibition of α-thrombin (α-thrombin): completely inhibited | sensitivity of γ-thrombin to the inhibitor (γ-thrombin): totally insensitive | inhibition of β-thrombin (β-thrombin): completely inhibited | effect on aggregation, inhibitor added to platelets followed by thrombin plus fibrinogen (human platelets; hirudin 1 to 2 U/ml): completely inhibited
